In US8598118B2, “Hepatocyte growth factor mimics as therapeutic agents” (Washington State University, priority 2011, dated 2013):
Counter-ions that a name gives are not always drawn. Where a SMILES comes first, the peptide text is derived from it. [ ]: non-standard residue; d: D form. dNle = CCCC[C@@H](N)C(=O)O; Nle = CCCC[C@H](N)C(=O)O; Ahx = NCCCCCC(=O)O

How the values were obtained:
MDCK cells [1] = experiment: Inhibition of HGF-dependent scattering in MDCK cells; assay type: cell-based, canine; details: for inhibition of HGF-dependent MDCK cell scattering: 20 ng/ml HGF, 48 h
Procedure: (§1) MDCK cells were grown to 100% confluency on the coverslips in six-well plates and washed twice with PBS. The confluent coverslips were then aseptically transferred to new six well plates containing 900 μl serum free DMEM. Norleual, Hinge peptide, and/or HGF (20 ng/ml) were added to appropriate wells. Control wells received PBS vehicle. Plates were incubated at 37° C. with 5% CO2 for 48 hours. Media was removed and cells were fixed with methanol. Cells were stained with Diff-Quik Wright-Giemsa (Dade-Behring, Newark, Del.) and digital images were taken. Coverslips were removed with forceps and more digital images were captured. Pixel quantification of images was achieved using Image J and statistics were performed using Prism 5 and InStat v.3.05.
as §1, with “h.” for “hours.”, “v.3.05 (GraphPad; San Diego, Calif.).” for “v.3.05.”

Met = experiment: Inhibition of HGF-dependent Met phosphorylation in HEK293 cells; assay type: cell-based, human; details: 10 min
Procedure: HEK293 cells were seeded in 6 well tissue culture plates and grown to 95% confluency in DMEM containing 10% FBS. The cells were serum deprived for 24 h prior to the treatment to reduce the basal levels of phospho-Met. Following serum starvation, cocktails comprised of vehicle and HGF with/without 6-AH analogs were prepared and pre-incubated for 30 min at room temperature. The cocktail was then added to the cells for 10 min to stimulate the Met receptor and downstream proteins. Cells were harvested using RIPA lysis buffer (Millipore; Billerica, Mass.) fortified with phosphatase inhibitor cocktails 1 and 2 (Sigma-Aldrich; St. Louis, Mo.). The lysate was clarified by centrifugation at 15,000 nx g for 15 min, protein concentrations were determined using the BCA total protein assay (Pierce), and then appropriate volumes of the lysates were diluted with 2× reducing Laemmli buffer and heated for ten min at 95° C. Samples containing identical amounts of protein were resolved using SDS-PAGE (Criterion, BioRad Laboratories), transferred to nitrocellulose, and blocked in Tris-buffered saline (TBS) containing 5% milk for 1 h at room temperature. The phospho-Met antibody were added to the blocking buffer at a final concentration of 1:1000 and incubated at 4° C. overnight with gentle agitation. The membranes were then washed several times with water and TBS ([…], 0.05% Tween-20), a 1:5000 dilution of horseradish-peroxidase conjugated goat anti-rabbit antiserum was added, and the membranes further incubated for 1 h at room temperature. Proteins were visualized using the Supersignal West Pico Chemiluminescent Substrate system (Pierce, Fenton, Mo.) and molecular weights determined by comparison to protein ladders (BenchMark, Invitrogen, and Kaleidoscope, BioRad). Film images were digitized and analyzed using a UVP phosphoimager.

MDCK cells [2] = experiment: HGF-dependent MDCK cell proliferation (MTT); assay type: cell-based, canine; details: analog 10^−10M, 4 days
Procedure: 5000 MDCK cells were seeded into the wells of a 96 well plates in 10% FBS DMEM. To induce cellular quiescence, the cells were serum deprived for 24 h prior to initiating the treatments. Following serum starvation, 10 ng/ml HGF alone and with various concentrations of 6-AH analogs or PBS vehicle were added to the media. The cells were allowed to grow under these conditions for 4 days with a daily addition of 6-AH analogs. On the fourth day, 1 mg/ml of […] (MTT, Sigma-Aldrich) prepared in PBS was added to the cells and incubated for 4 h. Dimethyl sulfoxide diluted in a 0.01M glycine buffer was added to solubilize the cell membranes and the absorbance of reduced MTT in the buffer was quantitated at 590 nm using a plate reader (Biotek Synergy 2, Winooski, Vt.). HGF-dependent proliferation was determined by subtracting the basal proliferation (in the absence of HGF) from total proliferation rates in groups containing HGF.

hippocampal neurons [3] = experiment: Whole-cell recordings of AMPA-mediated mEPSCs; assay type: cell-based, rat
c-Met receptor = biological target: T1, c-Met receptor (Rattus norvegicus, UniProt P97523); experiment: Effect of c-Met knock-down (shMet) on spinogenesis in hippocampal neurons; assay type: cell-based; details: neurons transfected with mRFP-β-actin alone; 10^−12 M, 48 hours
T1 construct: Dissociated hippocampal neurons were transfected with mRFP-β-actin and shMet RNA; endogenous in cells; host or cells: dissociated hippocampal neurons from P1-2 Sprague Dawley rats
Text: (§2) Neurons were transfected with mRFP-β-actin on day in vitro 6 (DIV6) using LipofectAMINE™ 2000 (Invitrogen) according to the manufacturer's protocol. This protocol yielded the desired 3-5% transfection efficiency thus enabling the visualization of individual neurons. Higher efficiencies obscured the dendritic arbor of individual neurons. Expression of fluorescently tagged actin allowed clear visualization of dendritic spines, as dendritic spines are enriched in actin. On DIV7 the cells were treated with vehicle (H20) or peptides (as described in the text) added to media. On DIV 12 the neurons were fixed (4% paraformaldehyde, 3% sucrose, 60 mM PIPES, 25 mM HEPES, 5 mM EGTA, 1 mM MgCl2, pH 7.4) for 20 min at room temperature and mounted. Slides were dried for at least 20 hours at 4° C. and fluorescent images were obtained with Slidebook 4.2 Digital Microscopy Software driving an Olympus IX81 inverted confocal microscope with a 60× oil immersion lens, NA 1.4 and resolution 0.280 μm Dendritic spine density was measured on primary and secondary dendrites at a distance of at least 150 μm from the soma. Five 50 μm long segments of dendrite from at least 10 neurons per data point were analyzed for each data point reported. Each experiment was repeated at least three times using independent culture preparations. Dendrite length was determined using the National Institutes of Health's Image J 1.41o program (NIH, Bethesda, Md.) and the neurite tracing program Neuron J (Meijering, Jacob et al. 2004) Spines were manually counted.
A target sequence for c-Met was designed using RNAi central design program (see the website located at cancan.cshl.edu/). […]. The shRNA was transfected into cells using the lipofectamine method described above. Verification of receptor knockdown was done by creating a c-Met-6-Myc tagged gene product using the Gateway cloning system (Invitrogen). […]

hippocampal neurons [4] = experiment: Spinogenesis in mRFP-β-actin transfected dissociated hippocampal neurons; assay type: cell-based, rat
Procedure: (§3) Hippocampal neurons (2×10^5 cells per square cm) were cultured from P1 Sprague Dawley rats on plates coated with poly-L-lysine from Sigma (St. Louis, Mo.; molecular weight 300,000). Hippocampal neurons were maintained in Neurobasal A media from Invitrogen (Carlsbad, Calif.) supplemented with B27 from Invitrogen, 0.5 mM L-glutamine, and […] cytosine-D-arabinofuranoside from Sigma added at 2 days in vitro. Hippocampal neurons were then cultured a further 3-7 days, at which time they were either transfected or treated with various pharmacological reagents as described in (Wayman, Davare et al. 2008).
as §2
as §3, with “centimeter)” for “cm)”, “P1-2” for “P1”, “the text or figure legends.” for “(Wayman, Davare et al. 2008).”

CA1 hippocampal neurons = experiment: Spinogenesis in organotypic hippocampal slice cultures; assay type: cell-based, rat; details: 10^−12 M, 2 days, organotypic slices
Procedure: (§4) Hippocampi from P4 Sprague Dawley rats were cultured as previously described (Wayman, Impey et al. 2006). Briefly, 400 μm slices were cultured on (Milipore, Billerica, Mass.) for 3 days after which they were biolistically transfected with tomato fluorescent protein (TFP) using a Helios Gen Gun (BioRad, Hercules, Calif.), according to the manufacturer's protocol, to visualize dendritic arbors. Following a 24 hour recovery period slices were stimulated with vehicle (H2O), 1 pM Nle1-AngIV or Dihexa for 2 days. Slices were fixed and mounted. Hippocampal CA1 neuronal processes were imaged and measured as described above.
as §4, with “Gene” for “Gen”, “with” for “with vehicle (H2O),”

Male Sprague-Dawley rats = experiment: Morris water maze with the HGF antagonist Hinge (Example 2)
Procedure: Male Sprague-Dawley rats (Taconic derived) weighing 390-450 g were maintained with free access to water and food (Harland Tekland F6 rodent diet, Madison, Wis.) except the night prior to surgery when food was removed. Each animal was anesthetized with Ketamine hydrochloride plus Xylazine (100 and 2 mg/kg im. respectively; Phoenix Scientific; St. Joseph, Mo., and Moby; Shawnee, Kans.). […] The guide cannula measured 2.5 cm in overall length and was prepared with a heat bulge placed 2.5 mm from its beveled tip, thus acting as a stop to control the depth of penetration. Once in position, the cannula was secured to the skull with two stainless-steel screws and dental cement. […]
A black circular platform (diameter: 12 cm; height: 24 cm) was placed 30 cm from the wall and submerged 2 cm below the water surface. […] The swimming path of the animals was recorded using a computerized video tracking system (Chromotrack; San Diego Instruments, CA). […] Swim speed was determined from these values. […]
Morris water maze data set mean latencies to find the platform during each daily block of five trials were calculated for each animal for each day of acquisition. […] Significant effects were analyzed by Newman-Keuls post-hoc test with a level of significance set at P<0.05.

T1 sequence (P17945 33-495 partner limits assumed): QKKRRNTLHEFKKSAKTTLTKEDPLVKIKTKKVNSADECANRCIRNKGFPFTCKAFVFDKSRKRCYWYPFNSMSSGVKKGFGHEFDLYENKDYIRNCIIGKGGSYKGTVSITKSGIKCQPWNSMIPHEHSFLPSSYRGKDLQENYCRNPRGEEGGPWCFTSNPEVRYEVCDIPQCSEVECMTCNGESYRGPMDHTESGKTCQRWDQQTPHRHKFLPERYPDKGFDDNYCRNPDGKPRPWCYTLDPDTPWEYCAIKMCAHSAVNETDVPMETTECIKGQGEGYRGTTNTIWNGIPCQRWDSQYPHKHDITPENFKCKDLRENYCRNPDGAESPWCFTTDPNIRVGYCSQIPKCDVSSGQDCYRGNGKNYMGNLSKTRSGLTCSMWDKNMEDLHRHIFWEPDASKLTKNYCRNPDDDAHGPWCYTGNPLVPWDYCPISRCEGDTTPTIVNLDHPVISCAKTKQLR
T1 sequence (P17945 496-728 partner limits assumed): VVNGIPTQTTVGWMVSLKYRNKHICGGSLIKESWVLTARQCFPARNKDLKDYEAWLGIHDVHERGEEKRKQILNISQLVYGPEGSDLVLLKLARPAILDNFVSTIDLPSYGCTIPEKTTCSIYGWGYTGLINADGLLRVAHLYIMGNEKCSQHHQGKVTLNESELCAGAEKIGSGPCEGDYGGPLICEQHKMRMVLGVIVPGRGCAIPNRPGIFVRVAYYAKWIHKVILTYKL
T1 sequence (P97523 25-1382): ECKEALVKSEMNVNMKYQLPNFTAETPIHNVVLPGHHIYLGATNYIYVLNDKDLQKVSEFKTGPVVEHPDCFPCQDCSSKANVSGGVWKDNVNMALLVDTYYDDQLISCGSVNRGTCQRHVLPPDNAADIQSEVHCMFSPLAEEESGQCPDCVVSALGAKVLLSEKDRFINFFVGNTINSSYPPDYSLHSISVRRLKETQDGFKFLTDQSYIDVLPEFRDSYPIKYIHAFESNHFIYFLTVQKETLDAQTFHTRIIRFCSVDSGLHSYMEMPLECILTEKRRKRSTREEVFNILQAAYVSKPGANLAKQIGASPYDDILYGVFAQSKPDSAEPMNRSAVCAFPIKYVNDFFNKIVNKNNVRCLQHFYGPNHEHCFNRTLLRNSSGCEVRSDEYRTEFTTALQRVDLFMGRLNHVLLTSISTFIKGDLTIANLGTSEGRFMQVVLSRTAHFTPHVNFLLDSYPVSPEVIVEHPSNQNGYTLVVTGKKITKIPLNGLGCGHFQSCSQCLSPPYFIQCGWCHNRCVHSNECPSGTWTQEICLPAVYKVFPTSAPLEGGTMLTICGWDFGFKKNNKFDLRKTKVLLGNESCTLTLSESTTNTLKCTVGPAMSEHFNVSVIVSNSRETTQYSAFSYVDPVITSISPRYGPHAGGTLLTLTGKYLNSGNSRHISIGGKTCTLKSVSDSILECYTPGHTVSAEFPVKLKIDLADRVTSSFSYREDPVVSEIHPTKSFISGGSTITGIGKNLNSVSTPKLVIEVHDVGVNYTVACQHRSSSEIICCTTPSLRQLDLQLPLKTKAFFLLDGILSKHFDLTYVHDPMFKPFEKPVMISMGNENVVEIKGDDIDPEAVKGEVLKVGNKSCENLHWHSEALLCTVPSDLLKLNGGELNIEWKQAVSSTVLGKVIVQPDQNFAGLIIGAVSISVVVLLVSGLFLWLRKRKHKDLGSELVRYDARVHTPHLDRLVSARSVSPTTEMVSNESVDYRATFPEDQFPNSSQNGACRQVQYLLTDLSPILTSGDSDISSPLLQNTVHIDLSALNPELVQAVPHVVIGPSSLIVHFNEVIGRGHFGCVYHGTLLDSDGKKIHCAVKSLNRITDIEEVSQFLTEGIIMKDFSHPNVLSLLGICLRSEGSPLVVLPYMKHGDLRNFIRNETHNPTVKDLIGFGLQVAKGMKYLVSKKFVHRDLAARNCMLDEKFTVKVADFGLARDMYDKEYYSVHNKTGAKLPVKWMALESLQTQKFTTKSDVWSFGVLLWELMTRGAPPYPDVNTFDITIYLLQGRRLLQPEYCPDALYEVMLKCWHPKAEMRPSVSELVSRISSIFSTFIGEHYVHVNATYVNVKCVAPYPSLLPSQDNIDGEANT

With CCCC[C@@H](N)C(=O)N[C@@H](CCSC)C(=O)N[C@H](C(=O)NCCCCCC(N)=O)[C@@H](C)CC [D-Nle-Met-Ile-NH—(CH2)5—CONH2] (H-[dNle]MI[Ahx]-NH2) as the compound, how does the “inhibition of HGF-dependent MDCK cell scattering” value (MDCK cells [1]) read?
The value was “not different”.

What about the “inhibition of HGF-dependent Met auto-phosphorylation” value (Met) of the same compound?
Its value is “no ability to effect on Met activation”.

CCCC[C@@H](N)C(=O)N[C@@H](Cc1c[nH]c2ccccc12)C(=O)N[C@H](C(=O)NCCCCCC(N)=O)[C@@H](C)CC [D-Nle-Trp-Ile-NH—(CH2)5—CONH2] (H-[dNle]WI[Ahx]-NH2) was tested. Which “inhibition of HGF-dependent MDCK cell scattering” value (MDCK cells [1]) did it give?
The value was “different from the HGF alone group but not different from the control group”.

What about the “inhibition of HGF-dependent Met auto-phosphorylation” value (Met) of the same compound?
The value was “intermediate inhibitory activity”.

What about the “inhibition of HGF-dependent MDCK cell proliferation” value (MDCK cells [2]) of the same compound?
The value was “inhibitory activity, albeit less than that observed with the most potent analogs”.

Which “fold increase over control mEPSC frequency” value (hippocampal neurons [3]; 10-12 M, 5 days) does the source give for CCCC[C@H](N)C(=O)N[C@@H](Cc1ccc(O)cc1)C(=O)N[C@H](C(=O)N[C@@H](Cc1c[nH]cn1)C(=O)N1CCC[C@H]1C(=O)N[C@@H](Cc1ccccc1)C(=O)O)[C@@H](C)CC [Nle1-AngIV, reference compound] (H-[Nle]YIHPF-OH; N-terminus and C-terminus assumed) here?
Its value is 1.7 fold.

What about the “mean frequency of AMPA-mediated mEPSCs” value (hippocampal neurons [3]; 10-12 M, 5 days (Example 1)) of the same compound?
The value was 5.27 Hz.

What about the “mean spine numbers per 50 μm dendrite length” value (c-Met receptor) of the same compound?
Its value is 20.0.

And the “fold increase in the number of spines” value (hippocampal neurons [4]; 10^−12 M, 5 day treatment, vs vehicle)?
Its value is “greater than 2 fold”.

And the “spines per 50 μm dendrite length, CA1 neurons” value (CA1 hippocampal neurons)?
The value was 11 spines per 50 μm dendrite length.

How did the “mean latency to find the pedestal, final day of training (day 8)” value (Male Sprague-Dawley rats; scopolamine icv pretreated rats, agents 300 pmol icv) turn out when CN1[C@@H]2C[C@@H](OC(=O)[C@H](CO)c3ccccc3)C[C@H]1[C@@H]1O[C@@H]12 [scopolamine, scopolamine hydrobromide] was run?
Its value is 84.8 s.

Which “mean frequency of mEPSCs” value (hippocampal neurons [3]; 10^−12 M, 5 days (Example 2)) does the source give for “DYIRNC (Synthetic hinge peptide) [reference compound]” here?
Its value is 4.51±0.47.

And the “effect on basal spinogenesis” value (hippocampal neurons [4]; Hinge alone, wide range of doses)?
The value was “no effect on spinogenesis”.

What about the “inhibition of stimulated spine formation” value (hippocampal neurons [4]; neurons stimulated with 10 ng/ml HGF, 10^−12 M Nle1-AngIV or 10^−12 M Dihexa) of the same compound?
Its value is “effectively inhibit spine formation”.

And the “inhibition of scattering of MDCK cells” value (MDCK cells [1]; Hinge)?
Its value is “inhibit scattering”.

What about the “mean latency to find the pedestal, final day of training (day 8)” value (Male Sprague-Dawley rats; aCSF followed by Hinge (no scopolamine), icv) of the same compound?
The value was 46.1 s.
